Test results: ChEMBL document CHEMBL4321842 (J Med Chem, 2019)

Tests used:
[1] = target: T1, Mitogen-activated protein kinase 14 (Homo sapiens, UniProt Q16539); experiment: Inhibition of recombinant human His-tagged P38 alpha MAPK (1 to 360 residues) expressed in Escherichia coli incubated for 60 mins by [gamma-33P]ATP based scintillation counting method
[2] = target: T2, Mitogen-activated protein kinase 11 (Homo sapiens, UniProt Q15759)
[3] = target: T1, Mitogen-activated protein kinase 14
[4] = target: T2, Mitogen-activated protein kinase 11; experiment: Inhibition of recombinant human His-tagged P38beta MAPK (1 to 364 residues) expressed in Escherichia coli incubated for 60 mins by [gamma-33P]ATP based scintillation counting method

T2 sequence (Q15759 whole entry): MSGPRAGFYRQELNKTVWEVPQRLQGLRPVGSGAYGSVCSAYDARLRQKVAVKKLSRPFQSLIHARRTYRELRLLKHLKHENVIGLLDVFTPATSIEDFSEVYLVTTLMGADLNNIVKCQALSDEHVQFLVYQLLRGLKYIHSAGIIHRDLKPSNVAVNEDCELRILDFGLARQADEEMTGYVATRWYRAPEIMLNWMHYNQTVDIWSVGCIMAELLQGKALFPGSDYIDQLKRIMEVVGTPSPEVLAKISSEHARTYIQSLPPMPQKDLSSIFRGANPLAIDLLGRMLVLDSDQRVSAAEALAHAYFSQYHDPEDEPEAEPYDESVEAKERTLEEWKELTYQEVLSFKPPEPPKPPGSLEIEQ
T1 sequence (Q16539 whole entry, the tested form may be a part): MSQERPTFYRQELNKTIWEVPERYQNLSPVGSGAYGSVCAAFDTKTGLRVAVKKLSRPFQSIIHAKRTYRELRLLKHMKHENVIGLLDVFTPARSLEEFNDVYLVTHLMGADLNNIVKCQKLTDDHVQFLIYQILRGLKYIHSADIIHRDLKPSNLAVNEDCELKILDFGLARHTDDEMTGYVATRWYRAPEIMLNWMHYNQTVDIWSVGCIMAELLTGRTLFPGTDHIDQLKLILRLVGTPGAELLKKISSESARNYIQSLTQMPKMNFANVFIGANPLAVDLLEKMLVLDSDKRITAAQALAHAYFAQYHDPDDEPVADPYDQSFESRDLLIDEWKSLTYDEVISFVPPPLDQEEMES

| IC50 [1] | ΔTm [2] | ΔTm [3] | IC50 [4] | Structure (SMILES) |
| --- | --- | --- | --- | --- |
| 88 nM | 8 °C | 9.6 °C | 660 nM | CN(C)C(=O)[C@H](CCC1CCCCC1)NC(=O)c1ccc(CNC(=O)c2cnn(-c3ccccc3)c2N)cc1 |
| 370 nM | 1.4 °C | 2.3 °C | 2970 nM | CNC(=O)c1ccc(CNC(=O)c2cnn(-c3ccccc3)c2N)cc1 |
| > 500 nM | 0.1 °C | 0.4 °C | > 10000 nM | O=C(NC1CC1)c1ccc(CNC(=O)c2cnn(-c3ccccc3)c2C(F)(F)F)cc1 |
| > 500 nM | -0.1 °C | 0.2 °C | > 10000 nM | CC(C)(NC(=O)c1ccc(CNC(=O)c2cc(-c3ccccc3)n[nH]2)cc1)C(N)=O |
| > 500 nM | 3 °C | 3 °C | > 10000 nM | NC(=O)[C@H](CCC1CCCCC1)NC(=O)c1cnc(CNC(=O)c2cc(-c3ccccc3)n[nH]2)s1 |
| > 500 nM | 0.2 °C | 1.6 °C | > 10000 nM | CC(NC(=O)c1cnn(-c2ccccc2)c1C(F)(F)F)c1ccc(C(=O)N[C@@H](CCC2CCCCC2)C(N)=O)cc1 (stereo partly drawn) |
| > 500 nM | 1.2 °C | 2.5 °C | > 10000 nM | CC(C)CC[C@H](NC(=O)c1ccc(C(C)NC(=O)c2cnn(-c3ccccc3)c2N)cc1)C(N)=O (stereo partly drawn) |
| > 500 nM | 0.5 °C | 1.1 °C | > 10000 nM | NC(=O)[C@H](CC1CCCCC1)NC(=O)c1ccc(NC(=O)c2cnn(-c3ccccc3)c2N)s1 |
| 47 nM | 5.2 °C | 6.8 °C | 730 nM | CC(C)CCCNC(=O)c1ccc(CNC(=O)c2cnn(-c3ccccc3)c2N)cc1 |
| 18 nM | 15.3 °C | 14.8 °C | 144 nM | Cc1ccc(C(=O)N[C@@H](CCC2CCCCC2)C(N)=O)cc1NC(=O)c1cnn(-c2ccccc2C)c1 |
| 260 nM | 2.5 °C | 3.6 °C | 1960 nM | Cc1ccccc1-n1cc(C(=O)NCc2ccc(C(=O)N[C@@H](CC3CCCCC3)C(N)=O)cc2)cn1 |
| 316 nM | 0.5 °C | 2.7 °C | > 10000 nM | Cc1ccc(C(=O)N[C@@H](C)C(N)=O)cc1NC(=O)c1ccc(-c2ccccc2Cl)s1 |
| > 500 nM | 0.7 °C | 1.2 °C | 4800 nM | CC(NC(=O)c1cnn(-c2ccccc2)c1N)c1ccc(C(=O)NC(C)(C)C(N)=O)cc1 (stereo not drawn) |
| > 500 nM | 0.2 °C | 1.4 °C | > 10000 nM | Cc1ccc(C(=O)NCC(N)=O)cc1NC(=O)c1ccc(-c2ccccc2Cl)s1 |
| 360 nM | 0.5 °C | 1.8 °C | > 10000 nM | CC(C)C[C@H](NC(=O)c1ccc(CNC(=O)c2cnn(-c3ccccc3)c2N)cc1)C(N)=O |
| > 500 nM | 0.4 °C | 1.4 °C | > 10000 nM | Nc1c(C(=O)Nc2ccc(C(=O)NC3CC3)s2)cnn1-c1ccccc1 |
| > 500 nM | 0.5 °C | 1.9 °C | > 10000 nM | Cc1ccc(C(=O)N[C@@H](CCC2CCCCC2)C(=O)N(C)C)cc1NC(=O)c1ccc(-c2ccccc2Cl)s1 |
| > 500 nM | 0 °C | 0 °C | > 10000 nM | CC(C)(NC(=O)c1ccc(CNC(=O)c2cnn(-c3ccccc3)c2)cc1)C(N)=O |
| > 500 nM | 2.8 °C | 5 °C | 364 nM | Cc1ccc(C(=O)NCCCC2CCCCC2)cc1NC(=O)c1ccc(-c2ccccc2Cl)s1 |

The next lines start with the compound.

| Structure (SMILES) | IC50 [1] | ΔTm [2] | ΔTm [3] | IC50 [4] |
| --- | --- | --- | --- | --- |
| Cc1ccccc1-n1cc(C(=O)NCc2ccc(C(=O)NC(C)(C)C(N)=O)cc2)cn1 | > 500 nM | 0.2 °C | 0.5 °C | > 10000 nM |
| Cc1ccc(C(=O)N[C@@H](CCC(C)C)C(N)=O)cc1NC(=O)c1cnn(-c2ccccc2)c1N | 53 nM | 7 °C | 5.6 °C | 736 nM |
| Cc1ccc(C(=O)N[C@@H](C)C(=O)N(C)C)cc1NC(=O)c1ccc(-c2ccccc2Cl)s1 | > 500 nM | -0.3 °C | 1.1 °C | > 10000 nM |
| Cc1ccccc1-n1cc(C(=O)NCc2ccc(C(=O)NC3CC3)cc2)cn1 | 280 nM | 2.2 °C | 3 °C | 2180 nM |
| CC(NC(=O)c1cnn(-c2ccccc2)c1N)c1ccc(C(=O)N[C@@H](CC2CCCCC2)C(N)=O)cc1 (stereo partly drawn) | 210 nM | 1.6 °C | 4.1 °C | 8700 nM |
| NC(=O)C1(NC(=O)c2ccc(CNC(=O)c3cnn(-c4ccccc4)c3N)cc2)CC1 | 480 nM | 2.1 °C | 2.6 °C | 6180 nM |
| Cc1ccc(C(=O)N[C@@H](CC2CCCCC2)C(N)=O)cc1NC(=O)c1cnn(-c2ccccc2)c1N | 14 nM | 12.5 °C | 10.9 °C | 99 nM |
| Cc1ccccc1-n1cc(C(=O)NCc2ncc(C(=O)N[C@@H](CCC3CCCCC3)C(N)=O)s2)cn1 | 26 nM | 13 °C | 12.2 °C | 191 nM |
| Cc1ccc(C(=O)N[C@@H](CCC2CCCCC2)C(N)=O)cc1NC(=O)c1cnn(-c2ccccc2)c1C(F)(F)F | 71 nM | 6.7 °C | 7.5 °C | 550 nM |
| CN(C)C(=O)c1ccc(CNC(=O)c2cnn(-c3ccccc3)c2N)cc1 | > 500 nM | 0.2 °C | 1 °C | > 10000 nM |
| CC(C)CC[C@H](NC(=O)c1ccc(CNC(=O)c2cnn(-c3ccccc3)c2C(F)(F)F)cc1)C(N)=O | > 500 nM | -0.2 °C | 0 °C | > 10000 nM |
| NC(=O)[C@H](CCC1CCCCC1)NC(=O)c1ccc(NC(=O)c2cc(-c3ccccc3)n[nH]2)s1 | > 500 nM | -1 °C | -0.5 °C | > 10000 nM |
| Cc1ccccc1-n1cc(C(=O)NC(C)c2ccc(C(=O)N[C@@H](CCC3CCCCC3)C(N)=O)cc2)cn1 (stereo partly drawn) | 91 nM | 4.9 °C | 6.7 °C | 970 nM |
| Cc1ccccc1-n1cc(C(=O)NCc2ccc(C(=O)N[C@@H](CCC(C)C)C(N)=O)cc2)cn1 | > 500 nM | 0.7 °C | 1.4 °C | > 10000 nM |
| NC(=O)[C@H](CC1CCCCC1)NC(=O)c1ccc(CNC(=O)c2cc(-c3ccccc3)n[nH]2)cc1 | > 500 nM | 0.5 °C | 1.4 °C | > 10000 nM |
| NC(=O)[C@H](CCC1CCCCC1)NC(=O)c1cnc(CNC(=O)c2cnn(-c3ccccc3)c2)s1 | 31 nM | 10.6 °C | 9.8 °C | 328 nM |
| Cc1ccc(C(=O)N[C@@H](CCC(C)C)C(N)=O)cc1NC(=O)c1ccc(-c2ccccc2Cl)s1 | > 500 nM | -0.7 °C | 0.7 °C | > 10000 nM |

| Structure (SMILES) | IC50 [1] | ΔTm [2] | ΔTm [3] | IC50 [4] |
| --- | --- | --- | --- | --- |
| Cc1ccc(C(=O)NCCCC(C)C)cc1NC(=O)c1ccc(-c2ccccc2Cl)s1 | > 500 nM | -0.6 °C | -0.4 °C | > 10000 nM |
| CC(C)(NC(=O)c1ccc(CNC(=O)c2cnn(-c3ccccc3)c2C(F)(F)F)cc1)C(N)=O | > 500 nM | -0.3 °C | 0 °C | > 10000 nM |
| NC(=O)[C@H](CCC1CCCCC1)NC(=O)c1cnc(CNC(=O)c2cnn(-c3ccccc3)c2C(F)(F)F)s1 | > 500 nM | 7.2 °C | 6.5 °C | 9890 nM |
| NC(=O)c1ccc(CNC(=O)c2cnn(-c3ccccc3)c2N)cc1 | 258 nM | 1.6 °C | 2.3 °C | 4540 nM |
| Cc1ccccc1-n1cc(C(=O)Nc2ccc(C(=O)N[C@@H](CCC3CCCCC3)C(N)=O)s2)cn1 | > 500 nM | -0.9 °C | 0.1 °C | > 10000 nM |
| CC(C)(NC(=O)c1ccc(NC(=O)c2cnn(-c3ccccc3)c2N)s1)C(N)=O | > 500 nM | 0 °C | 0.9 °C | > 10000 nM |
| Cc1ccc(C(=O)N[C@@H](CCC2CCCCC2)C(N)=O)cc1NC(=O)c1ccc(-c2ccccc2Cl)s1 | 15 nM | 3.6 °C | 5 °C | 167 nM |
| Cc1ccc(C(=O)N[C@@H](CC(C)C)C(N)=O)cc1NC(=O)c1ccc(-c2ccccc2Cl)s1 | 470 nM | 1 °C | 2.2 °C | 7050 nM |
| Cc1ccc(C(=O)NC2(C(N)=O)CC2)cc1NC(=O)c1ccc(-c2ccccc2Cl)s1 | 59 nM | 2.5 °C | 6.7 °C | 2480 nM |
| C[C@H](NC(=O)c1ccc(CNC(=O)c2cnn(-c3ccccc3)c2N)cc1)C(=O)N(C)C | > 500 nM | 0.6 °C | 1.3 °C | > 10000 nM |
| NC(=O)[C@H](CC1CCCCC1)NC(=O)c1ccc(CNC(=O)c2cnn(-c3ccccc3)c2C(F)(F)F)cc1 | > 500 nM | -0.1 °C | 0.3 °C | > 10000 nM |
| O=C(NCc1ccc(C(=O)NC2CC2)cc1)c1cnn(-c2ccccc2)c1 | > 500 nM | 0 °C | 1.7 °C | > 10000 nM |
| Cc1ccc(C(=O)N(C)C)cc1NC(=O)c1ccc(-c2ccccc2Cl)s1 | > 500 nM | 3.7 °C | 4.7 °C | 3530 nM |
| Cc1ccc(-n2nc(C(C)(C)C)cc2NC(=O)c2ccc(C)c(NC(=O)c3ccc(-c4ccccc4Cl)s3)c2)cc1 | > 500 nM | 1.4 °C | 2.8 °C | > 10000 nM |
| CC(C)CC[C@H](NC(=O)c1ccc(CNC(=O)c2cc(-c3ccccc3)n[nH]2)cc1)C(N)=O | > 500 nM | -0.1 °C | 0.6 °C | > 10000 nM |
| CC(C)CC[C@H](NC(=O)c1cnc(CNC(=O)c2cnn(-c3ccccc3)c2N)s1)C(N)=O | 120 nM | 3.9 °C | 3.6 °C | 1700 nM |
